Measurements from US11793218B2, “Sweetener and flavor compositions, methods of making and methods of use thereof” (EPC Natural Products Co., Ltd., priority 2018, dated 2023).

Tests used:
[1] = Sensory analysis of odor/smell, color and taste of Maillard reaction samples at 22 C (Examples 55-62); format: in vivo, human
[2] = Sensory evaluation of GSGs and SGs, Thaumatin, NHDC and combinations in water (Example 255); format: in vivo, human
Experimental: 4.5 ppm Thaumatin (equivalent to 10 ppm EPCalin) was dissolved in water. Increasing amounts of NHDC (1-5 ppm) were added to the solution and the sensory properties were evaluated.
50 ppm (GSGs and SGs) were dissolved in water. Increasing amounts of NHDC (1-5 ppm) were added to the solution and the sensory properties were evaluated.
50 ppm (GSGs and SGs) and 4.5 ppm Thaumatin (equivalent to 10 ppm EPCalin) were dissolved in water. Increasing amounts of NHDC (1-5 ppm) were added to the solution and the sensory properties were evaluated.
Sweetness intensity was rated on 5-point scale
Sweetness intensity was rated on a 5-point scale

[3] = Sensory evaluation of the samples prepared in Example 50 (Example 52); format: in vivo, human; design: key to Intensity of Smell: “+” for slight; “++” for moderate; “+++” for very strong
Experimental: The reaction partner (amino acid, carbohydrate source) were dissolved/suspended in the reaction solvent and transferred into a glass beaker filled with sand pre-heated for at least 30 minutes at the reaction temperature in a drying oven. After the planned reaction time, the vials were transferred into ice water. After cooling to room temperature, sensory analysis and analytical characterization was performed.
For evaluation of the taste profile, the samples were tested by a panel of four people. 1 trained taster tasted independently the samples first. The taster was asked to describe the taste profile and score 0-5 according to the increasing sugar likeness, bitterness, aftertaste and lingering taste profiles. The first taster was allowed to re-taste, and then make notes for the sensory attributes perceived. Afterwards, another 3 tasters tasted and the attributes were noted and discussed openly to find a suitable description. In case that more than 1 taster disagreed with the results, the tasting was repeated. In some sensory test results (above), the taste rating was expressed by “+”, which means the intensity of the factors is shown by three levels. “+” for slight, “++” for moderate and “+++” for very strong.

[4] = Sensory analysis of odor/smell, color and taste of Maillard reaction samples at 22 C (Examples 55-62); format: in vivo, human; remark: listed apart in the source
Experimental: The reaction partners were dissolved in water and then warmed glycerin (60° C.) was added. […]
[…] After 20 minutes in the ice bath the sealed vials were put in a water bath set to 22° C.
The odor/smell was assessed independently by 3 persons; the final description was agreed after discussion. […] The taste was assessed independently by 3 persons either in the original samples or after appropriate dilution to achieve relevant concentrations of sugars and steviol-glycosides (i.e. 5-9% SE); the final description was agreed after discussion.

[5] = HPLC/DAD/MS detection of MRI (Amadori) products and degradation kinetics of reactants at various pH-conditions; conditions: reaction of Phe and Xyl
[6] = Assay to test reducing power (active iron-III reduction), Example 64; format: physicochemical; conditions: 100° C., up to 5.0 hours, diluted 1:10; FIG. 49
[7] = DPPH radical-scavenging activity, Example 65; format: physicochemical; conditions: 100° C., up to 5.0 hours, diluted 1:10; FIG. 50
Experimental: 1 mg 1,1-Diphenyl-2-picrylhydrazyl radical (DPPH)/ml ethanol, dilution to assay concentration were prepared in ethanol (40 μg/mL); Calibration samples were prepared with Ascorbic acid in a concentration of 0-10 μg/mL; as a negative control sample, water was used.
Samples in aqueous solution were used as such or diluted with water.
A 0.1 ml sample (or calibration standard) was mixed with 3.9 ml solution of DPPH (100 μMolar) and reacted while protected from light at room temperature for 30 min. Absorbance was determined at 517 nm against ethanol.
10 mM of amino acid and/or 10 mM sugar were dissolved in 10 ml 0.1 mM KH2PO4-buffer, pH=7.8.
The samples were kept at 100° C. in sealed glass vials (Pyrex 15 ml with screw caps) for 0 (before reaction), 2.5 or 5.0 hours. Thereafter the samples were transferred to an ice water bath and cooled down to room temperature. These samples were diluted 1:10 and used for the test assay for anti-oxidant potential.

[8] = cited from earlier work
[9] = Table 57.3, after reaction, 10 ml KH2PO4, pH 7.8, 2.5 h, 120° C.
[10] = Table 57.2, before reaction, 10 ml KH2PO4, pH 7.8
[11] = Table 52.2, 1 ml water + 9 ml Glycerin, 0.67 h, 100° C.
[12] = Table 56.1, negative controls (no carbohydrate source), 10 ml glycerin/water=9:1, 100° C., 40 minutes
[13] = Table 52.5, 1 ml water + 9 ml Glycerin, 2.0 h, 120° C.
[14] = Table 52.6, Glycerin 10 ml, 100° C., 40 min
[15] = Table 52.7, Glycerin 10 ml, 1 h, 120° C.
[16] = Table 52.1, samples of Example 50 after reaction

In the case of `O=C[C@H](O)[C@@H](O)[C@H](O)[C@H](O)C(=O)O` [Glucuronic Acid], the Smell [1, 9] is reported as “burnt bread” and the Taste [1, 9] is reported as “Bitter”.

For `OC[C@H]1OC(O)[C@H](O)[C@@H](O)[C@@H]1O` (stereo partly drawn) [9 mg Glucose], the Smell [1, 10] was “neutral” and the Taste [1, 10] was “Sweet”.

In the case of `COc1ccc(CCC(=O)c2c(O)cc(O[C@@H]3O[C@H](CO)[C@@H](O)[C@H](O)[C@H]3O[C@@H]3O[C@@H](C)[C@H](O)[C@@H](O)[C@H]3O)cc2O)cc1O` [NHDC, Neohesperidin dihydrochalcone, reference compound], the “sensory properties (sweetness, onset, mouth-feel, lingering)” value ([2]; in water, 4.5 ppm Thaumatin and/or 50 ppm GSGs and SGs with NHDC) is reported as “long lasting lingering”.

In the case of `C[C@H](N)C(=O)O` [0.1 mMol Ala], the Smell [3, 11] is reported as “Agar” and the Taste [3, 11] is reported as “sweet”.

In the case of `N[C@@H](CO)C(=O)O` [10.5 mg Ser], the Smell [4, 12] is reported as “Lotus flower” and the Taste [4, 12] is reported as “Slightly sweet”.

For `N[C@H](Cc1ccccc1)C(=O)O` [Phe], the Taste [1, 9] was “sweet”.

With `N[C@@H](Cc1ccc(O)cc1)C(=O)O` [18.1 mg Tyr] the Smell [4, 12] was “neutral” and the Taste [4, 12] was “Slightly sweet”.

For `N[C@@H](Cc1ccccc1)C(=O)O` [0.1 mMol Phe], the “Intensity of Smell” value [3, 13] was “+” and the Smell [3, 13] was “Caramel, burnt”.

With `N[C@@H](Cc1ccccc1)C(=O)O` [3.3 mMol Phe] the Smell ([3]; Table 52.6, Glycerin 10 ml, 100° C., 5 min) was “Slightly bloomy”, the Smell ([3]; Table 52.6, Glycerin 10 ml, 100° C., 10 min) was “flowery/bloomy” and the Smell ([3]; Table 52.6, Glycerin 10 ml, 100° C., 20 min) was “flowery/bloomy”. For the same molecule, the Smell [3, 14] was “flowery/bloomy” and the Smell [3, 15] was “flowery/bloomy”.

With `CSCC[C@H](N)C(=O)O` [14.9 mg Met] the Smell [4, 12] was “Sulfuric” and the Taste [4, 12] was “Slightly sweet”.

With `O=C[C@H](O)[C@@H](O)[C@H](O)CO` [Xyl] the “% degradation” value ([5]; pH = 5.5) was 4.59%, the “% degradation” value ([5]; pH = 7.0) was 6.3% and the “% degradation” value ([5]; pH = 8.5) was 9.47%.

In the case of `O=C[C@H](O)[C@H]1OC(=O)[C@@H](O)[C@H]1O` [0.1 mMol GlucLac], the Smell [3, 13] is reported as “Burnt sugar”.

With `N[C@@H](CCC(=O)O)C(=O)O` [167 mMol Glu] the Smell [3, 16] was “caramel” and the Taste [3, 16] was “Sweet”.

For `COc1ccc(CCC(=O)c2c(O)cc(O[C@@H]3O[C@H](CO)[C@@H](O)[C@H](O)[C@H]3O[C@@H]3O[C@@H](C)[C@H](O)[C@@H](O)[C@H]3O)cc2O)cc1O` [10 ppm NHDC], the Sensory evaluation ([2]; combinations of EPCalin and NHDC in water) was “Sweet, steep onset of sweetness, no lingering”.

With `C=C1C[C@@]23CC[C@H]4[C@@](C)(CCC[C@@]4(C)C(=O)O[C@@H]4O[C@H](CO)[C@@H](O)[C@H](O)[C@H]4O)[C@@H]2CC[C@]1(O[C@@H]1O[C@H](CO)[C@@H](O)[C@H](O[C@@H]2O[C@H](CO)[C@@H](O)[C@H](O)[C@H]2O)[C@H]1O[C@@H]1O[C@H](CO)[C@@H](O)[C@H](O)[C@H]1O)C3` [Reb-A, Rebaudioside A] the “active iron-III reduction (anti-oxidant properties)” value [6] was “substantial anti-oxidant properties” and the “radical scavenging properties (anti-oxidant properties)” value [7] was “substantial anti-oxidant properties”.

In the case of `NCCCC[C@H](N)C(=O)O` [14.7 mg Lys], the Smell [4, 12] is reported as “Popcorn” and the Taste [4, 12] is reported as “Slightly sweet”.

In the case of `C[C@@H](O)[C@H](N)C(=O)O` [11.91 mg Thr], the Smell [4, 12] is reported as “Vanilla, butter” and the Taste [4, 12] is reported as “Slightly sweet”.

With `N[C@@H](CS)C(=O)O` [12.1 mg Cys] the Smell [4, 12] was “Unpleasant (sulfur)” and the Taste [4, 12] was “Slightly sweet”.

For `C=C1C[C@@]23CC[C@H]4[C@@](C)(CCC[C@@]4(C)C(=O)O[C@@H]4O[C@H](CO)[C@@H](O)[C@H](O)[C@H]4O)[C@@H]2CC[C@]1(O[C@@H]1O[C@H](CO)[C@@H](O)[C@H](O[C@@H]2O[C@H](CO)[C@@H](O)[C@H](O)[C@H]2O)[C@H]1O[C@@H]1O[C@H](CO)[C@@H](O)[C@H](O)[C@H]1O)C3` [0.05 mMol Reb-A], the Smell [3, 11] was “neutral/unpleasant” and the Taste [3, 11] was “sweet”.

For `O=C1O[C@@H]2[C@@H](O)[C@H](O)O[C@@H]2C1O` (stereo partly drawn) [Glucuronolactone], the Smell [1, 9] was “Burnt sugar” and the Taste [1, 9] was “Bitter”.

With `N[C@@H](Cc1ccccc1)C(=O)O` [Phe 60 mMol] the Smell [3, 16] was “flowery/bloomy-caramel” and the Taste [3, 16] was “Sweet”.

In the case of `C[C@H](N)C(=O)O` [8.91 mg Ala], the Taste [4, 12] is reported as “Slightly sweet”.

For `CC[C@H](C)[C@H](N)C(=O)O` [13.11 mg Ile], the Smell [4, 12] was “Coffee” and the Taste [4, 12] was “Slightly sweet”.

For `O=C(O)[C@@H]1CCCN1` [11.5 mg Pro], the Taste [4, 12] was “Slightly sweet”.

In the case of `OC[C@H]1OC(O)[C@H](O)[C@@H](O)[C@@H]1O` (stereo partly drawn) [10 mMol Glu], the Smell [3, 14] is reported as “Slightly Caramel” and the Smell [3, 15] is reported as “Slightly Caramel”.

In the case of `CC1(C)[C@@H](O[C@H]2O[C@H](C(=O)O)[C@@H](O)[C@H](O)[C@H]2O[C@@H]2O[C@H](C(=O)O)[C@@H](O)[C@H](O)[C@H]2O)CC[C@]2(C)[C@H]3C(=O)C=C4[C@@H]5C[C@@](C)(C(=O)O)CC[C@]5(C)CC[C@@]4(C)[C@]3(C)CC[C@@H]12` [Glycyrrhizin, reference compound], the “times sweeter than sucrose (sugar)” value ([8]; sweetness depends on the tested concentration compared with sucrose) is listed as 30 to 50 times.

For `NC(=O)CC[C@H](N)C(=O)O` [14.62 mg Gln], the Taste [4, 12] was “Slightly sweet”.

In the case of `N[C@@H](Cc1ccccc1)C(=O)O` [16.5 mg Phe], the Smell ([4]; Example 58, after reaction) is reported as “Caramel, burnt”, the Taste ([4]; Example 58, after reaction, after dilution 1:20) is reported as “Sweet” and the Smell ([4]; Example 58, before reaction) is reported as “Neutral”. For the same molecule, the Smell [4, 12] was “Bloomy, caramel”, the Taste [4, 12] was “Slightly sweet” and the Smell [1, 10] was “neutral”. The Taste [1, 10] was “No taste”.

With `N[C@@H](Cc1c[nH]c2ccccc12)C(=O)O` [20.42 mg Try] the Smell [4, 12] was “Unpleasant (fecal)” and the Taste [4, 12] was “Slightly sweet”.

B1: Miraculin: A protein that does not taste sweet by itself but modifies taste receptors to make sour things taste sweet temporarily (protein, UniProt P13087 30-220, looked up)
Miraculin: DSAPNPVLDIDGEKLRTGTNYYIVPVLRDHGGGLTVSATTPNGTFVCPPRVVQTRKEVDHDRPLAFFPENPKEDVVRVSTDLNINFSAFMPCRWTSSTVWRLDKYDESTGQYFVTIGGVKGNPGPETISSWFKIEEFCGSGFYKLVFCPTVCGSCKVKCGDVGIYIDQKGRRRLALSDKPFAFEFNKTVYF
For B1, the “Notes (sweet taste)” value ([8]; in vivo) is listed as “A protein that does not taste sweet by itself”.
